Experimental findings from patent US6602525B1 (The Procter & Gamble Company, priority 2001, dated 2003) are described below.

The MIC is the lowest concentration found to suppress growth.

Molecules are shown by their SMILES. “And” between values parts separate entries of the source, which are not always exact repeats. Identical values can stand only once.

Assay type in all cases: cell-based
Test [1] relates to Staphylococcus saprophyticus. Kind of test: Checkerboard synergy test, nitrofurantoin and uva ursi. Particulars: nitrofurantoin alone, S. saprophyticus isolates 61-70. The source says: (§1) The checkerboard (or chessboard) method is used to assess the antimicrobial combination in vitro against the following selection of Gram-positive and Gram-negative pathogens including: Escherichia coli, Klebsiella pneumoniae, Proteus mirabilis, Serratia marcescens, Staphylococcus saprophyticus, Pseudomonas aeruginosa, and Enterococcus faecalis. […] Furthermore, the combination of nitrofurantoin and uva ursi is synergistic against four of the seven species tested, in particular E. coli, S. marcescens, P. mirabilis, and P. aeruginosa. […] [table] […] Following testing, the FIC index was calculated for each isolate panel to determine whether synergy, additivity, or antagonism occurred. […] For additivity, the FIC index is 1. For antagonism, the FIC index is 2.

A further test has as its system Proteus mirabilis. Described as above. Particulars: nitrofurantoin alone, P. mirabilis isolates 41-50.
Description: as §1

In test [2] the test system is Pseudomonas aeruginosa. The description is as above. To be noted: P. aeruginosa isolates 1-10.
Description: as §1

Test [3] concerns Enterococcus faecalis. Described as above. To be noted: E. faecalis isolates 21-30.
Description: as §1

The subject of test [4] is Staphylococcus saprophyticus. As to the kind of experiment: Pre-test MIC, NCCLS microbroth dilution. To be noted: nitrofurantoin alone, S. saprophyticus, one value per isolate (Isolate ID 61-70). The method, then:
(§2) Methods for Dilution Antimicrobial Susceptibility Tests for Bacteria That Grow Aerobically; Approved Standard (Fifth Edition) (2000). These standards are as follows: [table] Nitrofurantoin was added to cation-adjusted Mueller-Hinton Broth (hereinafter “CAMHB”) and dissolved. […] The uva ursi extract was serially diluted in water. For each test concentration, the final dilution was performed in CAMHB providing dilutions of 1:20 to 1:2048.
(In general: Broth dilution looks for growth in wells or tubes with falling amounts of substance.)

The subject of the next test is Serratia marcescens. As to the kind of experiment: Pre-test MIC, NCCLS microbroth dilution. Particulars: nitrofurantoin alone, S. marcescens, one value per isolate (Isolate ID 11-20). The method, then: as §2
Test [5] deals with Pseudomonas aeruginosa. Kind of test: Pre-test MIC, NCCLS microbroth dilution. The method, then: as §2
In test [6] the test system is Enterococcus faecalis. As to the kind of experiment: Pre-test MIC, NCCLS microbroth dilution. To be noted: nitrofurantoin alone, E. faecalis, one value per isolate (Isolate ID 21-30). The method, then: as §2
The mark [7] stands for this setting: checkerboard, nitrofurantoin alone.

On to `O=C1CN(/N=C/c2ccc([N+](=O)[O-])o2)C(=O)N1` [Nitrofurantoin, N-(5-nitro-2-furfurylidene)-1-aminohydantoin], for which the “MIC Nitrofurantoin” value is 8 µg/mL in test [1]; 128 µg/mL with Proteus mirabilis; >512 µg/mL and 512 µg/mL in the test on Pseudomonas aeruginosa [2] (setting [7]); 8 µg/mL with Enterococcus faecalis [3] (setting [7]); 8 to 32 µg/mL in test [4]; 64 to 512 µg/mL in the test on Serratia marcescens. The “MIC Nitrofurantoin” value against Enterococcus faecalis [6] was in the range of 8 to 64 µg/mL. The MIC with Pseudomonas aeruginosa [2] (Pseudomonas aeruginosa, read-out: MIC Nitrofurantoin, checkerboard, nitrofurantoin alone) is > 512 µg/mL; with Enterococcus faecalis [3] (Enterococcus faecalis, read-out: MIC Nitrofurantoin, checkerboard, nitrofurantoin alone), 16 µg/mL; in the test with Pseudomonas aeruginosa [5] (Pseudomonas aeruginosa, read-out: Nitrofurantoin MIC), > 512 µg/mL. Also, the “Nitrofurantoin MIC” value in the test on Pseudomonas aeruginosa [5] (pre-test, nitrofurantoin alone, P. aeruginosa, one value per isolate (Isolate ID 1-10)) was >512 µg/mL.
